EPA's ToxValDB 9.5
“And” between values parts separate entries of the source, which are not always exact repeats. Identical values can stand only once.

Tests used:
[1] = tested on: Mus musculus; settings: oral, gavage; for LD50: acute; for NOAEL: duration: 9 days, CD1
[2] = tested on: Rattus norvegicus; settings: for LD50 / LC50: acute; for LC50: Wistar
[3] = tested on: Rattus norvegicus; settings: subchronic, oral, gavage, Sprague-Dawley
[4] = tested on: Oryctolagus sp.; settings: acute; dermal; occlusive; New Zealand
[5] = tested on: Rattus norvegicus; settings: chronic; for LEL / NOEL: oral, diet
[6] = tested on: Mus musculus; settings: oral
[7] = tested on: Rattus norvegicus; settings: oral
[8] = reproduction developmental, duration: 90 days, oral, diet, F
[9] = reproduction developmental, duration: 90 days, oral, diet, F, Fischer 344
[10] = reproduction developmental, duration: 90 days, oral, diet, Fischer 344, generation: F1
[11] = reproduction developmental, duration: 90 days, oral, diet, generation: F1
[12] = developmental, duration: 1 days, gavage, M/F, NMRI, Developmental: Altered spontaneous behavior and habituation in adults exposed as neonates
[13] = developmental, duration: 42 days, gavage, M/F, CD1, Developmental: Decrease in number of pups per litter with no change in pup to implantation site ratio
[14] = developmental, duration: 16 days, gavage, F, Wistar, Developmental: 20% decrease in serum T4 levels in pups on PND 16/17 + Endocrine: 20-30% decreases in serum T4 levels in dams
[15] = reproduction developmental, duration: 56 days, gavage, M, Sprague-Dawley, Endocrine: Hypertrophy and hyperplasia of thyroid follicular cells in males
[16] = reproduction developmental, duration: 56 days, gavage, M, Sprague-Dawley, Renal: 31% increase in BUN in males
[17] = duration: 2 years, M/F, increased levels of serum proteins and increased liver weight
[18] = duration: 2 years, M/F, reduced body weight

Nc1ccc(Oc2ccc(N)cc2)cc1 [4,4'-Oxydianiline]
LD50 [1]: ≥ 635 mg/kg and ≤ 735 mg/kg | LD50 ([2]; oral, gavage): ≥ 675 mg/kg and ≤ 775 mg/kg | NOAEL ([2]; developmental, oral, gavage, Sprague-Dawley): 10 mg/kg-day | LOAEL [2, 8]: 400 ppm | NOAEL [2, 8]: 100 ppm | LOAEL [2, 9]: 400 ppm | NOAEL [2, 9]: 100 ppm | LOAEL [2, 10]: 400 ppm | NOAEL [2, 10]: 100 ppm | LOAEL [2, 11]: 400 ppm | NOAEL [2, 11]: 100 ppm | NOAEL ([2]; reproduction developmental, oral, gavage, F, Sprague-Dawley): 10 mg/kg-day | NOEL ([3]; M, Food Consumption: decrease + Hematology: RBC decrease, R Hgb decrease, R RET increase, R Hct decrease, MCHC decrease, R APTT decrease, WBC …): 3 mg/kg-day

CC(=O)Oc1cccc(Oc2ccc(C(F)(F)F)cc2Cl)c1 [2-Chloro-1-(3-acetoxyphenoxy)-4-(trifluoromethyl)benzene]
LD50 [4]: > 200 mg/kg | LC50 ([2]; Inhalation): > 4.13 µg/mL | LD50 ([2]; oral, Crj:CD): > 500 mg/kg

Cl [Hydrochloric acid]
LOAEL ([5]; inhalation, M, hyperplasia of nasal mucosa larynx and trachea): 15 mg/m3

COCCOCCOC [Diethylene glycol dimethyl ether]
NOAEL ([1]; developmental): 62.8 mg/kg-day | NOAEL ([1]; reproduction developmental, F): 500 mg/kg-day | LC50 ([2]; inhalation, nose only): > 11000 mg/m3 | NOAEC ([2]; repeat dose other, inhalation, M): 165 mg/m3 | NOAEL ([2]; short-term, duration: 2 weeks, inhalation, nose only, F): 2030 mg/m3 | LOAEL ([2]; short-term, duration: 2 weeks, inhalation, nose only, M): 604 mg/m3 | NOEL ([3]; M, Hematology: Hgb decrease, Hct decrease, MCV decrease + Necropsy: Spleen: Enlargement + Histopathology: Liver/Centrilobular- Hypertrophy of …): 2.5 mg/kg-day

O=S(=O)(O)C(F)(F)C(F)(F)C(F)(F)C(F)(F)C(F)(F)C(F)(F)F [Perfluorohexanesulfonic acid]
LOAEL [6, 12]: 9.2 mg/kg-day | NOAEL [6, 12]: 6.1 mg/kg-day | NOAEL ([6]; developmental, duration: 42 days, gavage, M/F, CD1): 3 mg/kg-day | LOAEL [6, 13]: 1 mg/kg-day | NOAEL [6, 13]: 0.3 mg/kg-day | NOAEL ([6]; developmental, duration: 42 days, gavage, M/F, CD1, Hepatic: Single cell necrosis and microvascular fatty changes at 3 mg/kg/day / centrilobular hepatocellular hypertrophy at ?0.3 mg/kg/day …): 1 mg/kg-day | LOAEL ([6]; reproduction developmental, duration: 42 days, gavage, M/F, CD1, Hepatic: Single cell necrosis and microvascular fatty changes at 3 mg/kg/day / centrilobular hepatocellular hypertrophy at ?0.3 mg/kg/day …): 3 mg/kg-day | NOAEL ([6]; short-term, duration: 7 days, gavage, M, Hepatic: Hepatocellular hypertrophy, steatosis, and increased hepatic triglyceride levels): 10 mg/kg-day | NOAEL ([6]; subchronic, duration: 6 weeks, diet, M, Hepatic: Decreased plasma triglyceride, cholesterol, non-HDL cholesterol, and HDL cholesterol levels / increased hepatic triglyceride …): 6 mg/kg-day | LOAEL [7, 14]: 5 mg/kg-day | NOAEL [7, 14]: 0.05 mg/kg-day | LOAEL ([7]; developmental, duration: 16 days, gavage, F, Wistar, Developmental: 40% decrease in serum T4 levels in pups on PND 16 + Endocrine: 60% decreases in serum T4 levels in dams): 25 mg/kg-day | NOAEL ([7]; reproduction developmental, duration: 56 days, gavage, F, Sprague-Dawley, Hematological: 6% increase in prothrombin time in males at ?0.3 mg/kg/day / decreases in hemoglobin (4%), hematocrit (3%), and RBC levels (…): 10 mg/kg-day | NOAEL ([7]; reproduction developmental, duration: 56 days, gavage, M/F, Sprague-Dawley, Hepatic: Increased liver weight / centrilobular hepatocellular hypertrophy in males at ?3 mg/kg/day + Immunotoxicological: No histological …): 10 mg/kg-day | LOAEL [7, 15]: 3 mg/kg-day | NOAEL [7, 15]: 1 mg/kg-day | LOAEL ([7]; reproduction developmental, duration: 56 days, gavage, M, Sprague-Dawley, Hematological: 6% increase in prothrombin time in males at ?0.3 mg/kg/day / decreases in hemoglobin (4%), hematocrit (3%), and RBC levels (…): 0.3 mg/kg-day | LOAEL [7, 16]: 10 mg/kg-day | NOAEL [7, 16]: 3 mg/kg-day | NOAEL ([7]; short-term, duration: 16 days, gavage, F, Wistar): 45 mg/kg-day and 25 mg/kg-day

CC(C)Oc1cc(-n2nc(C(C)(C)C)oc2=O)c(Cl)cc1Cl [Oxadiazon]
LEL [5, 17]: 5 mg/kg-day | NOEL [5, 17]: 0.5 mg/kg-day

Cc1ccc2[nH]c3cc4c(=O)c5cc(C)ccc5[nH]c4cc3c(=O)c2c1 [C.I. Pigment Red 122]
LD50 [1]: ≥ 5000 mg/kg | LD50 ([2]; oral, gavage): ≥ 5000 mg/kg | NOEL [3]: 1000 mg/kg-day

c1cc[n+]2c(c1)-c1cccc[n+]1CC2 [Diquat]
LEL ([5]; F, lens opacity and cataracts): 0.72 mg/kg-day | NOEL ([5]; M/F, lens opacity and cataracts): 0.22 mg/kg-day | LEL ([5]; M, lens opacity and cataracts): 0.58 mg/kg-day

CCOP(=O)(OCC)OC(=CCl)c1ccc(Cl)cc1Cl [Chlorfenvinphos]
LOAEL ([6]; subchronic, duration: 3 months, M/F, C57BL/6, immunological): 1.5 mg/kg-day | LOAEL ([7]; chronic, duration: 104 weeks, diet, M/F, Wistar, neurological): 0.7 mg/kg-day | LOAEL ([7]; short-term, duration: 10 days, diet, F, Wistar, neurological): 2.4 mg/kg-day

CN(C)c1nc(=O)n(C2CCCCC2)c(=O)n1C [Hexazinone]
LEL [5, 18]: 50 mg/kg-day | NOEL [5, 18]: 10 mg/kg-day
